Reference: patent US20170143701A1, “CARBOHYDRATE METABOLISM-AMELIORATING AGENT” (SUNTORY HOLDINGS LIMITED, priority 2014, published 2017)

Tested on: C57/BL6J mice
Test: In vivo plasma GLP-1 level-increasing action: plasma active GLP-1 level (ELISA) after oral administration
Details: 10 mg/kg oral; for Significant difference (p < 0.05) vs control group, plasma active GLP-1 level: 30 minutes, Student's t-test; for Plasma active GLP-1 level (relative value to control group as 100), average value: blood 30 minutes after, 0.5% CMC-Na group = 100
Experimental: Seven-week-old male C57/BL6J mice were purchased from CLEA Japan, Inc. for use, and they were subjected to an experiment after 1 week of a habituation period.
After the habituation period, the mice were subjected to 5.5 hours of food deprivation and 2 hours of water deprivation. Thereafter, a cyclic dipeptide dissolved or suspended in a 0.5% CMC-Na aqueous solution in 10 mg/kg was orally administered to each mouse forcibly. After 30 minutes, the blood was collected from the abdominal vena cava under anesthesia, and 1 μL of heparin sodium and 1 μL of 10 mM Sitagliptin phosphate were added to each collected blood, which was then subjected to centrifugation at 8000 rpm for 10 minutes to recover the plasma, and the plasma active GLP-1 level was measured by using the ELISA kit. In the analysis, the active GLP-1 level for a group administered with 0.5% CMC-Na aqueous solution was defined as 100, and relative values thereto were used.

SMILES: NC(=O)CC[C@@H]1NC(=O)[C@H](Cc2c[nH]c3ccccc23)NC1=O [compound 82, Cyclo(Trp-Gln)]
- Significant difference (p < 0.05) vs control group, plasma active GLP-1 level (Table 11, Experiment 6): No
- Plasma active GLP-1 level (relative value to control group as 100), average value (Table 11, Experiment 6): 90

SMILES: CSCCC1NC(=O)C(Cc2c[nH]c3ccccc23)NC1=O (stereo not drawn) [compound 83, Cyclo(Trp-Met)]
- Significant difference (p < 0.05) vs control group, plasma active GLP-1 level (Table 11, Experiment 6): No
- Plasma active GLP-1 level (relative value to control group as 100), average value (Table 11, Experiment 6): 110

SMILES: O=C1NC(Cc2cnc[nH]2)C(=O)NC1Cc1ccc(O)cc1 (stereo not drawn) [compound 85, Cyclo(His-Tyr)]
- Significant difference (p < 0.05) vs control group, plasma active GLP-1 level (Table 11, Experiment 6): No
- Plasma active GLP-1 level (relative value to control group as 100), average value (Table 11, Experiment 6): 90

SMILES: CC1NC(=O)C(Cc2ccc(O)cc2)NC1=O (stereo not drawn) [compound 86, Cyclo(Ala-Tyr)]
- Significant difference (p < 0.05) vs control group, plasma active GLP-1 level (Table 11, Experiment 6): No
- Plasma active GLP-1 level (relative value to control group as 100), average value (Table 11, Experiment 6): 90

SMILES: O=C(O)CC[C@@H]1NC(=O)[C@H](Cc2ccc(O)cc2)NC1=O [compound 87, Cyclo(Glu-Tyr)]
- Significant difference (p < 0.05) vs control group, plasma active GLP-1 level (Table 12, Experiment 7): No
- Plasma active GLP-1 level (relative value to control group as 100), average value (Table 12, Experiment 7): 141

SMILES: CC(C)[C@@H]1NC(=O)[C@H](Cc2ccc(O)cc2)NC1=O [compound 88, cyclo-valyl-tyrosine]
- Significant difference (p < 0.05) vs control group, plasma active GLP-1 level (Table 12, Experiment 7): Yes
- Plasma active GLP-1 level (relative value to control group as 100), average value (Table 12, Experiment 7): 385

SMILES: CCC(C)C1NC(=O)C(Cc2ccc(O)cc2)NC1=O (stereo not drawn) [compound 89, Cyclo(Ile-Tyr)]
- Significant difference (p < 0.05) vs control group, plasma active GLP-1 level (Table 12, Experiment 7): No
- Plasma active GLP-1 level (relative value to control group as 100), average value (Table 12, Experiment 7): 222

SMILES: C[C@@H](O)[C@@H]1NC(=O)[C@H](Cc2ccc(O)cc2)NC1=O [compound 90, cyclo-threonyl-tyrosine]
- Significant difference (p < 0.05) vs control group, plasma active GLP-1 level (Table 12, Experiment 7): Yes
- Plasma active GLP-1 level (relative value to control group as 100), average value (Table 12, Experiment 7): 466

SMILES: O=C(O)C[C@@H]1NC(=O)[C@H](Cc2ccc(O)cc2)NC1=O [compound 91, Cyclo(Asp-Tyr)]
- Significant difference (p < 0.05) vs control group, plasma active GLP-1 level (Table 12, Experiment 7): No
- Plasma active GLP-1 level (relative value to control group as 100), average value (Table 12, Experiment 7): 181

SMILES: NC(=O)C[C@@H]1NC(=O)[C@H](Cc2ccc(O)cc2)NC1=O [compound 92, Cyclo(Asn-Tyr)]
- Significant difference (p < 0.05) vs control group, plasma active GLP-1 level (Table 12, Experiment 7): No
- Plasma active GLP-1 level (relative value to control group as 100), average value (Table 12, Experiment 7): 181

SMILES: NC(=O)CC[C@@H]1NC(=O)[C@H](Cc2ccc(O)cc2)NC1=O [compound 93, cyclo-glutaminyl-tyrosine]
- Significant difference (p < 0.05) vs control group, plasma active GLP-1 level (Table 12, Experiment 7): Yes
- Plasma active GLP-1 level (relative value to control group as 100), average value (Table 12, Experiment 7): 344

SMILES: N=C(N)NCCCC1NC(=O)C(Cc2ccc(O)cc2)NC1=O (stereo not drawn) [compound 94, Cyclo(Arg-Tyr)]
- Significant difference (p < 0.05) vs control group, plasma active GLP-1 level (Table 12, Experiment 7): No
- Plasma active GLP-1 level (relative value to control group as 100), average value (Table 12, Experiment 7): 222

SMILES: CC(C)C[C@@H]1NC(=O)[C@H](Cc2cnc[nH]2)NC1=O [compound 103, Cyclo(His-Leu)]
- Significant difference (p < 0.05) vs control group, plasma active GLP-1 level (Table 13, Experiment 8): No
- Plasma active GLP-1 level (relative value to control group as 100), average value (Table 13, Experiment 8): 94

SMILES: CC(C)CC1NC(=O)C(C(C)O)NC1=O (stereo not drawn) [compound 105, Cyclo(Thr-Leu)]
- Significant difference (p < 0.05) vs control group, plasma active GLP-1 level (Table 13, Experiment 8): No
- Plasma active GLP-1 level (relative value to control group as 100), average value (Table 13, Experiment 8): 94

SMILES: CC(C)CC1NC(=O)C(CC(N)=O)NC1=O (stereo not drawn) [compound 106, Cyclo(Asn-Leu)]
- Significant difference (p < 0.05) vs control group, plasma active GLP-1 level (Table 13, Experiment 8): No
- Plasma active GLP-1 level (relative value to control group as 100), average value (Table 13, Experiment 8): 94

SMILES: CC(C)C1NC(=O)C(Cc2cnc[nH]2)NC1=O (stereo not drawn) [compound 108, Cyclo(Val-His)]
- Significant difference (p < 0.05) vs control group, plasma active GLP-1 level (Table 13, Experiment 8): No
- Plasma active GLP-1 level (relative value to control group as 100), average value (Table 13, Experiment 8): 118

SMILES: CC(C)C1NC(=O)C(CCC(=O)O)NC1=O (stereo not drawn) [compound 118, Cyclo(Val-Glu)]
- Significant difference (p < 0.05) vs control group, plasma active GLP-1 level (Table 13, Experiment 8): No
- Plasma active GLP-1 level (relative value to control group as 100), average value (Table 13, Experiment 8): 112

SMILES: CCC(C)C1NC(=O)C(CCSC)NC1=O (stereo not drawn) [compound 119, Cyclo(Met-Ile)]
- Significant difference (p < 0.05) vs control group, plasma active GLP-1 level (Table 13, Experiment 8): No
- Plasma active GLP-1 level (relative value to control group as 100), average value (Table 13, Experiment 8): 106

SMILES: CSCCC1NC(=O)C(Cc2cnc[nH]2)NC1=O (stereo not drawn) [compound 120, cyclo-methionyl-histidine]
- Significant difference (p < 0.05) vs control group, plasma active GLP-1 level (Table 13, Experiment 8): Yes
- Plasma active GLP-1 level (relative value to control group as 100), average value (Table 13, Experiment 8): 154

SMILES: CC1NC(=O)C(C(C)C)NC1=O (stereo not drawn) [compound 122, Cyclo(Val-Ala)]
- Significant difference (p < 0.05) vs control group, plasma active GLP-1 level (Table 13, Experiment 8): No
- Plasma active GLP-1 level (relative value to control group as 100), average value (Table 13, Experiment 8): 94

SMILES: CCC(C)C1NC(=O)C(C)NC1=O (stereo not drawn) [compound 123, Cyclo(Ile-Ala)]
- Significant difference (p < 0.05) vs control group, plasma active GLP-1 level (Table 14, Experiment 9): No
- Plasma active GLP-1 level (relative value to control group as 100), average value (Table 14, Experiment 9): 120

SMILES: CSCCC1NC(=O)C(C)NC1=O (stereo not drawn) [compound 125, cyclo-methionyl-alanine]
- Significant difference (p < 0.05) vs control group, plasma active GLP-1 level (Table 14, Experiment 9): Yes

SMILES: CSCC[C@@H]1NC(=O)CNC1=O [compound 127, cyclo-methionyl-glycine]
- Significant difference (p < 0.05) vs control group, plasma active GLP-1 level (Table 14, Experiment 9): Yes
- Plasma active GLP-1 level (relative value to control group as 100), average value (Table 14, Experiment 9): 124

SMILES: CC(C)C1NC(=O)C(CO)NC1=O (stereo not drawn) [compound 132, cyclo-valyl-serine]
- Significant difference (p < 0.05) vs control group, plasma active GLP-1 level (Table 14, Experiment 9): Yes
- Plasma active GLP-1 level (relative value to control group as 100), average value (Table 14, Experiment 9): 129

SMILES: CC[C@H](C)[C@@H]1NC(=O)[C@H](CO)NC1=O [compound 133, cyclo-isoleucyl-serine]
- Significant difference (p < 0.05) vs control group, plasma active GLP-1 level (Table 14, Experiment 9): Yes

SMILES: CCC(C)C1NC(=O)C(C(C)C)NC1=O (stereo not drawn) [compound 138, Cyclo(Ile-Val)]
- Significant difference (p < 0.05) vs control group, plasma active GLP-1 level (Table 14, Experiment 9): No
- Plasma active GLP-1 level (relative value to control group as 100), average value (Table 14, Experiment 9): 96

SMILES: CC(C)C1NC(=O)C(C(C)O)NC1=O (stereo not drawn) [compound 139, cyclo-valyl-threonine]
- Significant difference (p < 0.05) vs control group, plasma active GLP-1 level (Table 14, Experiment 9): Yes
- Plasma active GLP-1 level (relative value to control group as 100), average value (Table 14, Experiment 9): 120

SMILES: CC(C)C1NC(=O)C(CC(=O)O)NC1=O (stereo not drawn) [compound 140, cyclo-valyl-aspartic acid]
- Significant difference (p < 0.05) vs control group, plasma active GLP-1 level (Table 14, Experiment 9): Yes
- Plasma active GLP-1 level (relative value to control group as 100), average value (Table 14, Experiment 9): 120

SMILES: CC(C)[C@@H]1NC(=O)[C@H](CC(N)=O)NC1=O [compound 141, cyclo-asparaginyl-valine]
- Significant difference (p < 0.05) vs control group, plasma active GLP-1 level (Table 15, Experiment 10): Yes
- Plasma active GLP-1 level (relative value to control group as 100), average value (Table 15, Experiment 10): 191

SMILES: CC(C)CC1NC(=O)C(CCC(=O)O)NC1=O (stereo not drawn) [compound 145, cyclo-glutamyl-leucine]
- Significant difference (p < 0.05) vs control group, plasma active GLP-1 level (Table 15, Experiment 10): Yes
- Plasma active GLP-1 level (relative value to control group as 100), average value (Table 15, Experiment 10): 236

SMILES: CC(C)CC1NC(=O)C(CC(=O)O)NC1=O (stereo not drawn) [compound 146, cyclo-aspartyl-leucine]
- Significant difference (p < 0.05) vs control group, plasma active GLP-1 level (Table 15, Experiment 10): Yes
- Plasma active GLP-1 level (relative value to control group as 100), average value (Table 15, Experiment 10): 259

SMILES: CC[C@H](C)[C@@H]1NC(=O)[C@H](Cc2cnc[nH]2)NC1=O [compound 148, cyclo-isoleucyl-histidine]
- Significant difference (p < 0.05) vs control group, plasma active GLP-1 level (Table 15, Experiment 10): Yes
- Plasma active GLP-1 level (relative value to control group as 100), average value (Table 15, Experiment 10): 259

SMILES: CC[C@H](C)[C@@H]1NC(=O)[C@H](CCCCN)NC1=O [compound 150, cyclo-isoleucyl-lysine]
- Significant difference (p < 0.05) vs control group, plasma active GLP-1 level (Table 15, Experiment 10): Yes
- Plasma active GLP-1 level (relative value to control group as 100), average value (Table 15, Experiment 10): 282

SMILES: CC(C)CC1NC(=O)C(CO)NC1=O (stereo not drawn) [compound 151, cyclo-seryl-leucine]
- Significant difference (p < 0.05) vs control group, plasma active GLP-1 level (Table 15, Experiment 10): Yes
- Plasma active GLP-1 level (relative value to control group as 100), average value (Table 15, Experiment 10): 259

SMILES: CC(C)CC1NC(=O)C(CCC(N)=O)NC1=O (stereo not drawn) [compound 152, cyclo-glutaminyl-leucine]
- Significant difference (p < 0.05) vs control group, plasma active GLP-1 level (Table 15, Experiment 10): Yes
- Plasma active GLP-1 level (relative value to control group as 100), average value (Table 15, Experiment 10): 282

SMILES: CC(C)[C@@H]1NC(=O)CNC1=O [compound 155, Cyclo(Val-Gly)]
- Significant difference (p < 0.05) vs control group, plasma active GLP-1 level (Table 15, Experiment 10): No
- Plasma active GLP-1 level (relative value to control group as 100), average value (Table 15, Experiment 10): 55

SMILES: CCC(C)C1NC(=O)CNC1=O (stereo not drawn) [compound 156, Cyclo(Ile-Gly)]
- Significant difference (p < 0.05) vs control group, plasma active GLP-1 level (Table 15, Experiment 10): No
- Plasma active GLP-1 level (relative value to control group as 100), average value (Table 15, Experiment 10): 145
